Experimental findings from patent US20230391796A1, “GLYCOSIDASE INHIBITORS AND USES THEREOF” (UNIVERSIDAD DE SEVILLA (US) -UNIVERSITY OF SEVILLE (US), priority 2020, published 2023) are described below.

One assay deals with T1, hOGA (Homo sapiens, UniProt O60502).
T1 sequence (O60502 1-916): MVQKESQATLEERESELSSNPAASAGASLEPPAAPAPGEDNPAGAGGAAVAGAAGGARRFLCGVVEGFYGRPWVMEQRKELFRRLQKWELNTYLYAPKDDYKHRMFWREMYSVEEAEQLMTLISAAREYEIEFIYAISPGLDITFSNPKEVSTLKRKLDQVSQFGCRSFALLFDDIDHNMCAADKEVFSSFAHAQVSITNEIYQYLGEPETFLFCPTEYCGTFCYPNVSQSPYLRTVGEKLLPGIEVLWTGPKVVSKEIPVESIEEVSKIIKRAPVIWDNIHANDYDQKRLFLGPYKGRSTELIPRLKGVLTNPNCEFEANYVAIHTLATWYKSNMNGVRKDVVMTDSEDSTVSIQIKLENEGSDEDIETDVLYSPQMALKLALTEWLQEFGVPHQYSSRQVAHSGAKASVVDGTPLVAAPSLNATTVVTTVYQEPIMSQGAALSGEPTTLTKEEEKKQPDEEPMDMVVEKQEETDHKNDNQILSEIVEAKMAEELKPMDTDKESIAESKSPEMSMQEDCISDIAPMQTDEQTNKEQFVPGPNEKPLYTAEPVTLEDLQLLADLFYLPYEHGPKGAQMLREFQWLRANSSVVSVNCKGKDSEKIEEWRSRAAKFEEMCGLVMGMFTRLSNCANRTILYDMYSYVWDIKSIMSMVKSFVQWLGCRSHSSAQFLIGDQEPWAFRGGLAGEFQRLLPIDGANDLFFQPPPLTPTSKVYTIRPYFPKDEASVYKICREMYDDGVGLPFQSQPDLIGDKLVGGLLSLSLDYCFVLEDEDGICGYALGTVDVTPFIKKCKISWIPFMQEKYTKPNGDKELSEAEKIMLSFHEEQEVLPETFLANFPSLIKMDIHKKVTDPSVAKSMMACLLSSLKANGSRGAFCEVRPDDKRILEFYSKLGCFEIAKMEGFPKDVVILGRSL
Description: Inhibition assay against hOGA, resorufin N-acetyl-β-D-glucosaminide fluorescence. The class given is biochemical. To be noted: 0.2 nM hOGA, 25 μM substrate, pH 7.1; Morrison Ki. As to the method: Inhibition Assays Against hOGA
Km=25 μM was measured with these conditions. Inhibition assays were run at 0.2 nM [hOGA] in the same buffer, in the presence or absence of various concentrations of inhibitors and at a fixed substrate concentration of 25 μM and 1% DMSO. First, inhibitor was serially diluted to the desired range of concentrations in 2% DMSO buffer. Next, 50 μL of inhibitor solutions at various concentrations in 2% DMSO Buffer was added to 50 μL of 0.8 nM enzyme and allowed to incubate at 25° C. for 5 minutes. 100 uL of 50 μM and 1% DMSO substrate was then added and reaction mixture was immediately mixed and aliquoted in 45 μL triplicates to a CORNING 384 well black plate. Fluorescence signal was measured continuously for 20 minutes at 37° C. in a BioTek Neo 2 Plate reader set at excitation and emission wavelengths of 572 and 610 nm, respectively. Max reaction rates for all inhibitor concentrations were calculated within Gen5 BioTek reader software. % Activity was subsequently calculated for each inhibitor concentration against the max reaction rate of uninhibited hOGA. GraphPad Prism 2016 was used to approximate the Morrison Ki values for each inhibitor.

Assay [1] addresses β-N-acetylglucosaminidase (from jack bean). Description: Inhibition assay against commercial β-N-acetylglucosaminidase (jack bean), p-nitrophenyl N-acetyl-β-D-glucosaminide substrate. The class given is biochemical. The settings on record: pH 5.5, 37° C.; average of three determinations ± s.e.m.; NI = no inhibition detected at 200 μM; read-out: Jack beans Hex. How it is done: Inhibition Assays Against Commercial β-N-acetylglucosaminidases
Inhibition constant (Ki) values were determined by spectrophotometrically measuring the residual hydrolytic activities of the glycosidases against p-nitrophenyl N-acetyl-β-D-glucosaminide. […] Each assay was performed in phosphate-citrate buffer and the reactions were initiated by addition of the enzyme to a solution of the substrate in the absence or presence of various inhibitor concentrations. The mixture was incubated for 10-30 min at 37° C. and the reaction was quenched by addition of 1 M Na2CO3. Reaction times were appropriate to obtain 10-20% conversion of the substrate in order to achieve linear rates. The absorbance of the resulting mixture was determined at 405 nm. Approximate values of Ki were determined using a fixed concentration of substrate (around the Km value for the different glycosidases) and various inhibitor concentrations. Full Ki determinations and enzyme inhibition mode were determined from the slope of Lineweaver-Burk plots and double reciprocal analysis using a Microsoft Office Excel 2007 program.

Structures can show the parent of a compound that is named as a salt.

Turning to `CCC(=O)N[C@H]1CN2/C(=N/Cc3ccccc3)SC[C@@H]2[C@@H](O)[C@@H]1O` [Compound 13, 2-Propanamido-5-N,6-S-(N′-benzyliminomethylidene)-1,2-dideoxy-6-thionojirimycin Hydrochloride], the Ki at hOGA is 7.97 nM; in assay [1] it was more than 200000 nM.
On to `CCC(=O)N[C@H]1CN2/C(=N/Cc3cccc4ccccc34)SC[C@@H]2[C@@H](O)[C@@H]1O` [Compound 14, 2-Propionamido-5-N,6-S-(N′-1-naphthylmethyliminomethylidene)-1,2-dideoxy-6-thionojirimycin hydrochloride], for which the Ki on hOGA is 0.701 nM; in assay [1], more than 200000 nM.
For `CCC(=O)N[C@H]1CN2/C(=N/Cc3ccc4[nH]ccc4c3)SC[C@@H]2[C@@H](O)[C@@H]1O` [Compound 15, 2-Propionamido-5-N,6-S-(N′-5-indolylmethyliminomethylidene)-1,2-dideoxy-6-thionojirimycin hydrochloride], in that order: 0.657 nM and more than 200000 nM.
As to `CC(C)C(=O)N[C@H]1CN2/C(=N/Cc3ccccc3)SC[C@@H]2[C@@H](O)[C@@H]1O` [Compound 16, 2-Isobutanamido-5-N,6-S-(N′-benzyliminomethylidene)-1,2-dideoxy-6-thionojirimycin Hydrochloride], the Ki at hOGA was 888 nM; in assay [1] it was more than 200000 nM.
Turning to `CCCC(=O)N[C@H]1CN2/C(=N/Cc3ccccc3)SC[C@@H]2[C@@H](O)[C@@H]1O` [Compound 17, 2-Butanamido-5-N,6-S-(N′-benzyliminomethylidene)-1,2-dideoxy-6-thionojirimycin], the results for the Ki (on hOGA; in assay [1]) were 337 nM and more than 200000 nM, respectively.
Take `CCNC(=S)N[C@H]1CN2/C(=N/Cc3ccccc3)SC[C@@H]2[C@@H](O)[C@@H]1O` [Compound 18, 2-Ethylthioureido-5-N,6-S-(N′-benzyliminomethylidene)-1,2-dideoxy-6-thionojirimycin]: the Ki on hOGA is 1060 nM; in assay [1], more than 200000 nM.
For `CCCNC(=S)N[C@H]1CN2/C(=N/Cc3ccccc3)SC[C@@H]2[C@@H](O)[C@@H]1O` [Compound 19, 2-Propylthioureido-5-N,6-S-(N′-benzyliminomethylidene)-1,2-dideoxy-6-thionojirimycin], in that order: 762 nM and more than 200000 nM.
